Drawing on patent US10945771B2, “Azabicyclo[4.1.0]heptane allosteric modulators of the M4 muscarinic acetylcholine receptor” (Merck Sharp & Dohme Corp., priority 2017, dated 2021), this text covers EC50 for 20 molecules.

The assay deals with T1, human M4 muscarinic acetylcholine receptor (Homo sapiens, UniProt P08173).
T1 construct: expressed in transfected cells; host or cells: CHO-K1
T1 sequence (P08173 1-479): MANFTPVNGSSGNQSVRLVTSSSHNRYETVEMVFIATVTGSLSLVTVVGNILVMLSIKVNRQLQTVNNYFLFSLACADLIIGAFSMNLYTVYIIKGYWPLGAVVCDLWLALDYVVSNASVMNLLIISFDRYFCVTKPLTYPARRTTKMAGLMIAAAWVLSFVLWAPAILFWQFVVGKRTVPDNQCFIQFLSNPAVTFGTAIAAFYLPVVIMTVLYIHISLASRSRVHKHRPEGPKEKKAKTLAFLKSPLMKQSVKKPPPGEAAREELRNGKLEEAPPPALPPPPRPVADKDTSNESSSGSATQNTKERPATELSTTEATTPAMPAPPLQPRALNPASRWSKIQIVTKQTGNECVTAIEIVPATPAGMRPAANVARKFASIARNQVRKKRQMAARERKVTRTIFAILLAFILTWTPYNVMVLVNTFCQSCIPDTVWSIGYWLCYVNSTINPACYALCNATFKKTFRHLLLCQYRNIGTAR
Put plainly: human FLIPR-based M4 PAM assay (Ca2+ dye fluorescence, CHO-K1 cells with human M4 receptor and Gαqi5). The format is cell-based. The note with it: inflection point (IP) of dose response curve, FLIPR Tetra, acetylcholine at 20% of maximum response. The method, then: In a typical experiment the M4 muscarinic acetylcholine receptor modulating activity of the compounds of the present invention was determined in accordance with the following experimental method. CHO-K1 cells stably transfected with human M4 receptor and chimeric G-protein Gαqi5 (Coward P, et al., Analytical Biochemistry, 270:242-248 (1999)) are thawed from liquid N2 storage, resuspended in growth medium, plated in black, clear bottom 384 well plates, and incubated 16-20 hours at 37° C., 5% CO2. On the day of assay, growth medium is removed, the cells are washed 2 times with wash buffer, and cells are incubated in dye loading buffer at 37° C., 5% CO2 for ˜1 hour. Following dye loading the cell plates are placed in a FLIPR Tetra instrument and while monitoring dye fluorescence (excitation […]), 10 uL of test substance at increasing concentrations is added, and fluorescence values are recorded for 4 min. Next, 10 uL of acetylcholine is added (final concentration calculated so as to achieve 20% of the maximum acetycholine response), and the fluorescence reading is continued for 3.5 min. In some cases, a third addition of acetylcholine (final concentration calculated to achieve 70% of the maximal acetylcholine response) is performed. The resulting dose response curves are fit to a 4 parameter logistic equation and the final result is determined as the inflection point (IP) of the curve
CHO-K1 cells stably transfected with human M4 receptor and chimeric G-protein Gαqi5 are thawed from liquid N2 storage, resuspended in growth medium, plated in black, clear bottom 384 well plates, and incubated 16-20 hours at 37° C., 5% CO2.
On the day of assay, growth medium is removed, the cells are washed 2 times with wash buffer, and cells are incubated in dye loading buffer at 37° C., 5% CO2 for ˜1 h. Following dye loading the cell plates are placed in a FLIPR Tetra instrument and while monitoring dye fluorescence ([…]), 10 uL of test substance at increasing concentrations is added, and fluorescence values are recorded for 4 min. Next, 10 uL of acetylcholine is added (final concentration calculated so as to achieve 20% of the maximum acetycholine response), and the fluorescence reading is continued for 3.5 min. In some cases, a third addition of acetylcholine (final concentration calculated to achieve 70% of the maximal acetylcholine response) is performed.

A word on the EC50: it is the concentration giving half of the maximal effect. A low value points to a more potent agent. `Cc1c(N2CCC(OCC3(C)CC3)C3CC32)nc2c(c1C)C(=O)NC2` (single isomer, unassigned) [Example 1, 3,4-dimethyl-2-(5-((1-methylcyclopropyl)methoxy)-2-azabicyclo[4.1.0]heptan-2-yl)-6,7-dihydro-5H-pyrrolo[3,4-b]pyridin-5-one] showed an EC50 of 39 nM.
Next, `Cc1c(N2CCC(OCC3(C)CC3)C3CC32)nc2c(c1C)C(=O)NC2` (single isomer, unassigned) [Example 2, 3,4-dimethyl-2-(5-((1-methylcyclopropyl)methoxy)-2-azabicyclo[4.1.0]heptan-2-yl)-6,7-dihydro-5H-pyrrolo[3,4-b]pyridin-5-one]: 1320 nM; `Cc1cc2c(nc1N1CCC(OCC3(C)CC3)C3CC31)CNC2=O` (single isomer, unassigned) [Example 3, 3-methyl-2-(5-((1-methylcyclopropyl)methoxy)-2-azabicyclo[4.1.0]heptan-2-yl)-6,7-dihydro-5H-pyrrolo[3,4-b]pyridin-5-one]: 40 nM; `Cc1cc2c(nc1N1CCC(OCC3(C)CC3)C3CC31)CNC2=O` (single isomer, unassigned) [Example 4, 3-methyl-2-(5-((1-methylcyclopropyl)methoxy)-2-azabicyclo[4.1.0]heptan-2-yl)-6,7-dihydro-5H-pyrrolo[3,4-b]pyridin-5-one]: 1670 nM.
In the case of `Cc1c(N2CCC(OCC3(C)CC3)C3CC32)nc2c(c1C)C(=O)N(C)C2CO` (single isomer, unassigned) [Example 5, 7-(hydroxymethyl)-3,4,6-trimethyl-2-(5-((1-methylcyclopropyl)methoxy)-2-azabicyclo[4.1.0]heptan-2-yl)-6,7-dihydro-5H-pyrrolo[3,4-b]pyridin-5-one], the EC50 amounted to 117 nM.
In the case of `Cc1c(N2CCC(OCC3(C)CC3)C3CC32)nc2c(c1C)C(=O)N(C)C2CO` (single isomer, unassigned) [Example 6, 7-(hydroxymethyl)-3,4,6-trimethyl-2-(5-((1-methylcyclopropyl)methoxy)-2-azabicyclo[4.1.0]heptan-2-yl)-6,7-dihydro-5H-pyrrolo[3,4-b]pyridin-5-one] it was 711 nM.
Next, `Cc1c(N2CCC(OCC3(C)CC3)C3CC32)nc2c(c1C)C(=O)N(C)C2CO` (single isomer, unassigned) [Example 7, 7-(hydroxymethyl)-3,4,6-trimethyl-2-(5-((1-methylcyclopropyl)methoxy)-2-azabicyclo[4.1.0]heptan-2-yl)-6,7-dihydro-5H-pyrrolo[3,4-b]pyridin-5-one]: 659 nM.
Next, `Cc1c(N2CCC(OCC3(C)CC3)C3CC32)nc2c(c1C)C(=O)N(C)C2CO` (single isomer, unassigned) [Example 8, 7-(hydroxymethyl)-3,4,6-trimethyl-2-(5-((1-methylcyclopropyl)methoxy)-2-azabicyclo[4.1.0]heptan-2-yl)-6,7-dihydro-5H-pyrrolo[3,4-b]pyridin-5-one]: 3000 nM.
For `CCc1cc2c(nc1N1CCC(OCC3(C)CC3)C3CC31)C(CO)N(C)C2=O` (single isomer, unassigned) [Example 9, 3-ethyl-7-(hydroxymethyl)-6-methyl-2-(5-((1-methylcyclopropyl)methoxy)-2-azabicyclo[4.1.0]heptan-2-yl)-6,7-dihydro-5H-pyrrolo[3,4-b]pyridin-5-one], the EC50 stood at 8090 nM.
As to `CCc1cc2c(nc1N1CCC(OCC3(C)CC3)C3CC31)C(CO)N(C)C2=O` (single isomer, unassigned) [Example 10, 3-ethyl-7-(hydroxymethyl)-6-methyl-2-(5-((1-methylcyclopropyl)methoxy)-2-azabicyclo[4.1.0]heptan-2-yl)-6,7-dihydro-5H-pyrrolo[3,4-b]pyridin-5-one], the EC50 stood at 47 nM.
Next, `CCc1cc2c(nc1N1CCC(OCC3(C)CC3)C3CC31)C(CO)N(C)C2=O` (single isomer, unassigned) [Example 11, 3-ethyl-7-(hydroxymethyl)-6-methyl-2-(5-((1-methylcyclopropyl)methoxy)-2-azabicyclo[4.1.0]heptan-2-yl)-6,7-dihydro-5H-pyrrolo[3,4-b]pyridin-5-one]: 742 nM.
Next, `CCc1cc2c(nc1N1CCC(OCC3(C)CC3)C3CC31)C(CO)N(C)C2=O` (single isomer, unassigned) [Example 12, 3-ethyl-7-(hydroxymethyl)-6-methyl-2-(5-((1-methylcyclopropyl)methoxy)-2-azabicyclo[4.1.0]heptan-2-yl)-6,7-dihydro-5H-pyrrolo[3,4-b]pyridin-5-one]: 506 nM; `Cc1c(N2CCC(OCC3(C)CC3)C3CC32)nc2c(c1C)C(=O)N(CCC#N)C2` (single isomer, unassigned) [Example 15, 3-(3,4-dimethyl-2-(5-((1-methylcyclopropyl)methoxy)-2-azabicyclo[4.1.0]heptan-2-yl)-5-oxo-5,7-dihydro-6H-pyrrolo[3,4-b]pyridin-6-yl)propanenitrile]: 50 nM; `Cc1c(N2CCC(OCC3(C)CC3)C3CC32)nc2c(c1C)C(=O)N(CCC#N)C2` (single isomer, unassigned) [Example 16, 3-(3,4-dimethyl-2-(5-((1-methylcyclopropyl)methoxy)-2-azabicyclo[4.1.0]heptan-2-yl)-5-oxo-5,7-dihydro-6H-pyrrolo[3,4-b]pyridin-6-yl)propanenitrile]: 1530 nM.
Next, `Cc1c(N2CCC(OCC3(C)CC3)C3CC32)nc2c(c1C)C(=O)N(CCS(C)(=O)=O)C2` (single isomer, unassigned) [Example 17, 3,4-dimethyl-2-(5-((1-methylcyclopropyl)methoxy)-2-azabicyclo[4.1.0]heptan-2-yl)-6-(2-(methylsulfonyl)ethyl)-6,7-dihydro-5H-pyrrolo[3,4-b]pyridin-5-one]: 103 nM.
Molecule `Cc1c(N2CCC(OCC3(C)CC3)C3CC32)nc2c(c1C)C(=O)N(CCS(C)(=O)=O)C2` (single isomer, unassigned) [Example 18] registered an EC50 of 20200 nM.
Next, `Cc1c(N2CCC(OCC3(C)CC3)C3CC32)nc2c(c1C)C(=O)N(CC(C)(C)O)C2` (single isomer, unassigned) [Example 20, 6-(2-hydroxy-2-methylpropyl)-3,4-dimethyl-2-(5-((1-methylcyclopropyl)methoxy)-2-azabicyclo[4.1.0]heptan-2-yl)-6,7-dihydro-5H-pyrrolo[3,4-b]pyridin-5-one]: 12000 nM; `Cc1c(N2CCC(OCC3(C)CC3)C3CC32)nc2c(c1C)C(=O)N1CCC(O)CC21` (single isomer, unassigned) [Example 21, 9-hydroxy-3,4-dimethyl-2-(5-((1-methylcyclopropyl)methoxy)-2-azabicyclo[4.1.0]heptan-2-yl)-8,9,10,10a-tetrahydropyrido[2,3-a]indolizin-5(7H)-one]: 157 nM; `Cc1c(N2CCC(OCC3(C)CC3)C3CC32)nc2c(c1C)C(=O)N1CCC(O)CC21` (single isomer, unassigned) [Example 22, 9-hydroxy-3,4-dimethyl-2-(5-((1-methylcyclopropyl)methoxy)-2-azabicyclo[4.1.0]heptan-2-yl)-8,9,10,10a-tetrahydropyrido[2,3-a]indolizin-5(7H)-one]: 116 nM.
In the case of `Cc1c(N2CCC(OCC3(C)CC3)C3CC32)nc2c(c1C)C(=O)N1CCC(O)CC21` (single isomer, unassigned) [Example 23, 9-hydroxy-3,4-dimethyl-2-(5-((1-methylcyclopropyl)methoxy)-2-azabicyclo[4.1.0]heptan-2-yl)-8,9,10,10a-tetrahydropyrido[2,3-a]indolizin-5(7H)-one] it was 2350 nM.
